Patent US20200270588A1, “GLUCOSYL TRANSFERASE POLYPEPTIDES AND METHODS OF USE” (Syngenta Participations AG, priority 2017, published 2020)
“And” between values parts separate entries of the source, which are not always exact repeats. Equal entries are not always repeated.

Key:
[1] = biological target: T1, Zea mays bx8 glucosyl transferase (his tagged SEQ ID NO: 2) (Zea mays, UniProt Q8W2B7); assay: UDP-Glo glucosyl transferase assay, purified enzyme; type: biochemical; conditions: for Activity: herbicide 0.500 mM, N-terminally his tagged, limit of detection about 0.001
T1 construct: His tag (N); made in house; host or cells: E. coli BL21 (DE3), pET24a
T1 sequence (Q8W2B7 1-459): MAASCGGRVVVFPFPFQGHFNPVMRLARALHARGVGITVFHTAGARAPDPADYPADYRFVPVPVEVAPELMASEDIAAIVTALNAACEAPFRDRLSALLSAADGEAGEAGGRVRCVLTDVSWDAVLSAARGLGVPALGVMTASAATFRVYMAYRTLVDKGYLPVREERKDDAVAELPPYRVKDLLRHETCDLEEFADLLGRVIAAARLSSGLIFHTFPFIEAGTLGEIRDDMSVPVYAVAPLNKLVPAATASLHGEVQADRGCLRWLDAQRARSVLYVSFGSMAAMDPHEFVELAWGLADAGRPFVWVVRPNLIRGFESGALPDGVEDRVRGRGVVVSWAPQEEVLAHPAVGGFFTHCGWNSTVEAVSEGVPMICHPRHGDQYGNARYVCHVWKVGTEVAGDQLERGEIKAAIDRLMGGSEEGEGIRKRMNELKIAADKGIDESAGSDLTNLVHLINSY
Procedure: Glucosyl transferase activity is assayed via measurement of acceptor substrate-dependent production of UDP from ultrapure UDP-glucose using the Promega UDP-Glo™ method and according to the manufacturer's instructions. Assays are run in 96 well microtiter plates.
Enzyme, typically at a stock concentration of ˜2 mg/ml is diluted to an appropriate concentration in 50 mM K^+ Hepes buffer at pH7.5 containing 0.5 mg/mL bovine serum albumin (BSA) and 5 ul aliquots of this diluted enzyme added to each well of a Perkin Elmer white ½ area 96 well plate. […] Assays are run for an appropriate time (usually 10 to 60 min) so that the amount of UDP formed lies within the most nearly linear part of the UDP standard curve and are stopped with the addition and mixing of 25 ul UDP-Glo™ detection reagent (prepared as described below). Plates are then incubated at room temperature for 60 minutes and then read in a luminescence plate reader (Perkin Elmer Envision 2130 Multilabel Reader). A UDP standard curve is run alongside each set of assays and reagent blank control assays run with DMSO in place of test herbicide. Typically, 300 pmol of UDP corresponds to a Relative Luminescence Unit (RLU) reading of about 1.5E7 and the response curve between 0 and 600 pmol is fitted to a polynomial function (see for example FIG. 2).
The UDP-Glo™ reagents are made up and used according to the manufacturer's instructions. Thus, Nucleotide Detection Buffer and ATP are combined to make nucleotide detection reagent (NDR) dispensed into aliquots and frozen to be freshly thawed before use.
Km and kcat values in respect of UDP-glucose are derived by carrying out experiments to measure initial rates over a suitable range of concentrations of UDP glucose out at a fixed near saturating concentration of acceptor substrate. Best fit values of kcat, Km and kcat/Km are obtained by direct fitting of the data to the Michaelis-Menten equation using Graphpad Prism™ software.
The glucosyl transferase activities of the mutant bx8-derived polypeptides expressed in these strains were initially assayed versus herbicide V as described in Example 1. The partly purified C-terminally his tagged w/t bx8 enzyme (SEQ ID No: 2) catalyzed glucosyl transfer to herbicide V at a low rate estimated to be less than about 0.002/s at 1 mM herbicide V which, because of a relatively high background of UDP formation in the DMSO (no substrate reagent control) was difficult to quantify using the luminescence assay. Thus further assays were run by LC/MS using which technique the formation of an O-beta glucosyl glucoside of herbicide V could more easily be confirmed but only quantified in a relative sense. Thus the various derivatives of C-terminally his tagged Zea mays bx8 SEQ ID No:2 were cloned and expressed in E. coli BL21 (DE3) as described in Example 1 and assayed in plates as crude extracts, as in Example 2, but monitored by LCMS rather than the luminescence assay.
Assays were carried out as described in Example 1. Partly purified C-terminally his tagged w/t Larkspur enzyme (SEQ ID No 10 with a 6 amino acid C-terminal tag) catalyzed glucosyl transfer to herbicide V at a rate estimated to be about 0.0065/s/pmol at 1 mM herbicide V. The similarly-tagged w/t bx-like enzymes from rye (SEQ ID No 11) and from wheat (SEQ ID No 4) were also active but only at levels close to the detection limit at ˜0.0015/s/pmol. Further examples of assay results from further experiments are depicted in Table 14. […]

[2] = biological target: T2, SEQ ID 34, mutant bx-type glucosyl transferase (Zea mays, UniProt Q8W2B7, V367W); assay: LC/MS glucosyl transferase assay (glucoside peak area), purified enzyme; type: biochemical; conditions: about 60 min, ~15 pmol enzyme, relative quantification only
T2 construct: 34; 2.45E+05; 2.17E+07; 5.21E+06; His tag; made in house
Procedure: In an alternative method for assaying the various enzymes, the test glucosyl transferase enzyme is reacted with substrates exactly as above except that the assay is stopped by adding an equal volume of acetonitrile. Alternatively 50 or 100 μl samples from assay reactions are added to 500 μl ethyl acetate to stop the reaction. In this case samples are then vortexed and 400 μl of the ethyl acetate partition removed, dried down, and resuspended in 100 μl 80:20 acetonitrile/water. The formation of product gluco side and/or disappearance of substrate test herbicide is then monitored directly by LC/MS. Samples are analyzed by LC-MS using an Agilent 1290 liquid chromatography system and Thermo Q-Exactive mass spectrometer. The chromatography is achieved on a Waters Acquity C18 BEH (50×2.1 mm) 1.7 μm particle size column, using a 6 minute gradient run of Water (0.2% formic acid) and Acetonitrile. The Q-Exactive is operated in positive ionisation electrospray mode, using Full scan-AIF mode, at 35,000 resolution, between 100-800 m/z. All analytes are identified from the full scan data to within at least 5 ppm accuracy of their predicted pseudo-molecular ion [M+H]^+ m/z value. In order to obtain quantitative data standard curves are run using herbicides and herbicide glucosides synthesized as standards. Where these synthetic glucosides were not available the LC/MS assay could only be used to provide relative data.
DNA sequences, optimized for E. coli codon usage, were cloned, expressed and the various proteins purified and assayed as described in the foregoing examples. Using the UDP assay (as described in examples 1, 3 and 6) the data obtained from the Zea mays bx8 w/t protein and its variants was noisy due to relatively high background rates in DMSO reagent blanks. The values reported in the table 15 were thus monitored by LC/MS as described in example 1.

T2 sequence (Q8W2B7 whole entry V367W): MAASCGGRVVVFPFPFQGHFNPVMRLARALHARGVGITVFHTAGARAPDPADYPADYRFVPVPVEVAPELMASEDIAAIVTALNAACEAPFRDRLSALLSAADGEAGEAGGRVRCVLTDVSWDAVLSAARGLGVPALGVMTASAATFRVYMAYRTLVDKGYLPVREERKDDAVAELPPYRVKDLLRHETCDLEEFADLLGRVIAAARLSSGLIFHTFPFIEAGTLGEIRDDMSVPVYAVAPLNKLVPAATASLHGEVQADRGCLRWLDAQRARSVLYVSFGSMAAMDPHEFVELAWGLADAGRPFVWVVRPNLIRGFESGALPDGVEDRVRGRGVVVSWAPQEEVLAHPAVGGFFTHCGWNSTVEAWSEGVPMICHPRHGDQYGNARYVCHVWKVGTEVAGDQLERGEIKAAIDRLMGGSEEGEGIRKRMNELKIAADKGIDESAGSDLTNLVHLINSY

SMILES: CN1CC(O)N(c2cc(C(F)(F)F)c(Cl)cn2)C1=O (centres unmarked) [XI]
- Activity [1]: 0.001 pmol/sec/pmol enzyme
- integrated peak area of beta-glucoside product [2]: 2.45E+05

SMILES: Cc1cnc(N2C(=O)N(C)CC2O)cc1C(F)(F)F (centres unmarked) [XVIII]
- Activity [1]: 0.001 pmol/sec/pmol enzyme

SMILES: CN1CC(O)N(c2cc(C(F)(F)F)ccn2)C1=O (centres unmarked) [Compound V]
- rate of glucosyl transfer ([1]; 1 mM herbicide V, partly purified C-terminally his tagged enzyme): less than 0.002 /s
- Activity [1]: 0.000 pmol/sec/pmol enzyme
- integrated peak area of beta-glucoside product [2]: 5.21E+06 and 4.16E+06

SMILES: CON1C(=O)N(c2cc(C(F)(F)F)ccn2)C(O)[C@@H]1C (some centres unmarked) [Compound VI]
- Activity [1]: 0.000 pmol/sec/pmol enzyme
- integrated peak area of beta-glucoside product [2]: 2.17E+07 and 2.00E+07
